Measured values as given in patent US20100003217A1, “Compounds and Pharmaceutical Compositions for the Treatment of Viral Infections” (priority 2008, published 2010).
Values joined by “and” are separate entries in the source; they are usually repeats but may differ in a detail not shown here. Equal entries are not always repeated.

What was measured:
[1] = Metabolite profiling in human liver microsomes; assay type: in vitro ADME; design: key: +: peak detected; ?: peak observed; ND: not detected; details: 50 μM Compound 1, 2 hours
Description: Preliminary identification of putative metabolites was conducted by comparing the retention time of observed metabolites with retention times obtained with chemically synthesized standards using the following HPLC-UV method:
Incubations with liver microsomes, liver cytosol or pig liver esterase were conducted in a final volume of 0.1 mL per incubation time point. Pooled microsomal protein (1.0 mg/mL) suspended in incubation buffer (0.1 M potassium phosphate, pH 7.4) was incubated for 2 hours at 37° C. with 50 μM Compound 1 from a stock solution in DMSO (final DMSO concentration was 0.1%); the microsomal reaction was initiated by the addition of an NADPH regenerating system (1.3 mM NADP^+, 3.3 mM glucose-6-phosphate, 0.4 U/ml glucose-6-phosphate dehydrogenase, and 3.3 mM MgCl2, final concentrations). Incubations with no NADPH or no protein served as controls. Reactions were terminated by the addition of 0.1 mL of stop solution (acetonitrile). The samples were vortex-mixed for 30 sec and then centrifuged at 10,000×g for 10 min. The supernatant was dried using a Labconco CentriVap concentrator and the dry residue reconstituted in water, transferred to an HPLC glass vial and analyzed by HPLC-UV method 2 (described above).
Results: Preliminary identification was accomplished by comparing LC elution of metabolites with that of available synthetic standards of putative metabolites (FIG. 2). Metabolites U1, U2 and U3 were characterized based on the retention times.

[2] = system: rat primary hepatocytes; test: Metabolic disposition of [^14C]-Compound 1 and [^14C]-2′-C-methyl guanosine in rat primary hepatocytes (incubation medium, cellular extracts, nucleotide levels); assay type: in vitro ADME, Sprague Dawley rat
In short: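 Radio-HPLC and liquid scintillation counting quantified metabolites in incubation medium and in 70% methanol cell extracts. Samples came from cultured rat, monkey or human primary hepatocytes exposed at 37° C to 1 or 10 μM [^14C]-compound or [^14C]-2′-C-methyl guanosine, sampled at 1–24 hours. Phosphates were confirmed by phosphatase digestion to the nucleoside.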

[3] = rat hepatocytes (Rs458), 1 μM [^14C]-Compound 1, 0 h
[4] = rat hepatocytes (Rs458), 1 μM [^14C]-Compound 1, 1 h
[5] = rat hepatocytes (Rs458), 1 μM [^14C]-Compound 1, 8 h
[6] = rat hepatocytes (Rs458), 1 μM [^14C]-Compound 1, 24 h
[7] = rat hepatocytes Rs448, 10 μM [^14C]-2′-C-methyl guanosine, 1 h
[8] = rat hepatocytes Rs448, 10 μM [^14C]-2′-C-methyl guanosine, 4 h
[9] = rat hepatocytes Rs448, 10 μM [^14C]-2′-C-methyl guanosine, 8 h
[10] = rat hepatocytes Rs448, 10 μM [^14C]-2′-C-methyl guanosine, 24 h
[11] = rat hepatocytes Rs458, 1 μM [^14C]-2′-C-methyl guanosine, 1 h
[12] = rat hepatocytes Rs458, 1 μM [^14C]-2′-C-methyl guanosine, 8 h
[13] = rat hepatocytes Rs458, 1 μM [^14C]-2′-C-methyl guanosine, 24 h
[14] = rat hepatocytes Rs458, 10 μM [^14C]-2′-C-methyl guanosine, 1 h
[15] = rat hepatocytes Rs458, 10 μM [^14C]-2′-C-methyl guanosine, 4 h
[16] = rat hepatocytes Rs458, 10 μM [^14C]-2′-C-methyl guanosine, 8 h
[17] = rat hepatocytes Rs458, 10 μM [^14C]-2′-C-methyl guanosine, 24 h

Structure (SMILES): C[C@@]1(O)[C@H](O)[C@@H](COP(=O)(O)O)O[C@H]1n1cnc2c(=O)[nH]c(N)nc21 [Compound 5, [(2R)-2-methyl-β-D-ribofuranosyl]guanine 5′-monophosphate]
- In vitro metabolite profile in microsomes following incubation with Compound 1 (peak detection) [1]: +
- metabolites observed in cellular extracts (% of total radioactivity) ([2]; rat hepatocytes (Rs448, Rs458), 10 μM [^14C]-Compound 1, 1 h, listed as Compd 5): 4.37% and 2.65%
- metabolites observed in cellular extracts (% of total radioactivity) ([2]; rat hepatocytes (Rs448, Rs458), 10 μM [^14C]-Compound 1, 4 h, listed as Compd 5): 4.02% and 4.53%
- metabolites observed in cellular extracts (% of total radioactivity) ([2]; rat hepatocytes (Rs448, Rs458), 10 μM [^14C]-Compound 1, 8 h, listed as Compd 5): 3.23% and 3.84%
- 2′-C-methyl guanosine nucleotide levels in cellular extracts [2, 3]: BLD (BLD = below limit of detection (0.02 pmol/million cells))
- metabolites observed in medium (% of total radioactivity) [2, 3]: BLD
- 2′-C-methyl guanosine nucleotide levels in cellular extracts [2, 4]: 6.00 pmol/million cells
- metabolites observed in cellular extracts (% of total radioactivity) [2, 4]: 3.74%
- metabolites observed in medium (% of total radioactivity) [2, 4]: BLD
- 2′-C-methyl guanosine nucleotide levels in cellular extracts [2, 5]: 11.0 pmol/million cells
- metabolites observed in cellular extracts (% of total radioactivity) [2, 5]: 3.51%
- metabolites observed in medium (% of total radioactivity) [2, 5]: 6.41%
- 2′-C-methyl guanosine nucleotide levels in cellular extracts [2, 6]: 11.0 pmol/million cells
- metabolites observed in cellular extracts (% of total radioactivity) [2, 6]: 6.68%
- metabolites observed in medium (% of total radioactivity) [2, 6]: no Compound 5 was detected and BLD
- metabolites observed in medium (% of total radioactivity) ([2]; rat hepatocytes (lots Rs448, Rs458), 10 μM [^14C]-Compound 1, 0 h): BLD
- metabolites observed in medium (% of total radioactivity) ([2]; rat hepatocytes (lots Rs448, Rs458), 10 μM [^14C]-Compound 1, 4 h): 5.3% and 3.6%
- metabolites observed in medium (% of total radioactivity) ([2]; rat hepatocytes (lots Rs448, Rs458), 10 μM [^14C]-Compound 1, 8 h): 6.1% and 3.3%
- metabolites observed in medium (% of total radioactivity) ([2]; rat hepatocytes (lots Rs448, Rs458), 10 μM [^14C]-Compound 1, 24 h): 2.9% and 2.6%
- 2′-C-methyl guanosine nucleotide levels in cellular extracts ([2]; rat hepatocytes Rs448, 10 μM [^14C]-2′-C-methyl guanosine, 0 h): 0 pmol/million cells
- 2′-C-methyl guanosine nucleotide levels in cellular extracts [2, 7]: BLD^a (BLD = below limit of detection (0.02 pmol/million cells))
- Major metabolites observed in cellular extracts (% of total radioactivity) [2, 7]: BLD^a (BLD = below limit of detection (30 DPM))
- 2′-C-methyl guanosine nucleotide levels in cellular extracts [2, 8]: BLD (BLD = below limit of detection (0.02 pmol/million cells))
- Major metabolites observed in cellular extracts (% of total radioactivity) [2, 8]: BLD (BLD = below limit of detection (30 DPM))
- 2′-C-methyl guanosine nucleotide levels in cellular extracts [2, 9]: BLD (BLD = below limit of detection (0.02 pmol/million cells))
- Major metabolites observed in cellular extracts (% of total radioactivity) [2, 9]: BLD (BLD = below limit of detection (30 DPM))
- 2′-C-methyl guanosine nucleotide levels in cellular extracts [2, 10]: 25.0 pmol/million cells
- Major metabolites observed in cellular extracts (% of total radioactivity) [2, 10]: 2.56 % of total radioactivity
- 2′-C-methyl guanosine nucleotide levels in cellular extracts ([2]; rat hepatocytes Rs448, 10 μM [^14C]-Compound 1, 0 h): 0 pmol/million cells
- 2′-C-methyl guanosine nucleotide levels in cellular extracts ([2]; rat hepatocytes Rs448, 10 μM [^14C]-Compound 1, 1 h): 43.0 pmol/million cells
- 2′-C-methyl guanosine nucleotide levels in cellular extracts ([2]; rat hepatocytes Rs448, 10 μM [^14C]-Compound 1, 4 h): 81.0 pmol/million cells
- 2′-C-methyl guanosine nucleotide levels in cellular extracts ([2]; rat hepatocytes Rs448, 10 μM [^14C]-Compound 1, 8 h): 79.0 pmol/million cells
- 2′-C-methyl guanosine nucleotide levels in cellular extracts ([2]; rat hepatocytes Rs448, 10 μM [^14C]-Compound 1, 24 h): 39.0 pmol/million cells
- 2′-C-methyl guanosine nucleotide levels in cellular extracts ([2]; rat hepatocytes Rs458, 1 μM [^14C]-2′-C-methyl guanosine, 0 h): BLD (BLD = below limit of detection (0.02 pmol/million cells))
- 2′-C-methyl guanosine nucleotide levels in cellular extracts [2, 11]: BLD (BLD = below limit of detection (0.02 pmol/million cells))
- Major metabolites observed in cellular extracts (% of total radioactivity) [2, 11]: BLD^a (BLD = below limit of detection (30 DPM))
- 2′-C-methyl guanosine nucleotide levels in cellular extracts [2, 12]: BLD (BLD = below limit of detection (0.02 pmol/million cells))
- Major metabolites observed in cellular extracts (% of total radioactivity) [2, 12]: BLD (BLD = below limit of detection (30 DPM))
- 2′-C-methyl guanosine nucleotide levels in cellular extracts [2, 13]: 5.40 pmol/million cells
- Major metabolites observed in cellular extracts (% of total radioactivity) [2, 13]: 6.83 % of total radioactivity
- 2′-C-methyl guanosine nucleotide levels in cellular extracts ([2]; rat hepatocytes Rs458, 10 μM [^14C]-2′-C-methyl guanosine, 0 h): 0 pmol/million cells
- 2′-C-methyl guanosine nucleotide levels in cellular extracts [2, 14]: BLD (BLD = below limit of detection (0.02 pmol/million cells))
- Major metabolites observed in cellular extracts (% of total radioactivity) [2, 14]: BLD^a (BLD = below limit of detection (30 DPM))
- 2′-C-methyl guanosine nucleotide levels in cellular extracts [2, 15]: BLD (BLD = below limit of detection (0.02 pmol/million cells))
- Major metabolites observed in cellular extracts (% of total radioactivity) [2, 15]: BLD (BLD = below limit of detection (30 DPM))
- 2′-C-methyl guanosine nucleotide levels in cellular extracts [2, 16]: BLD (BLD = below limit of detection (0.02 pmol/million cells))
- Major metabolites observed in cellular extracts (% of total radioactivity) [2, 16]: BLD (BLD = below limit of detection (30 DPM))
- 2′-C-methyl guanosine nucleotide levels in cellular extracts [2, 17]: 88.0 pmol/million cells
- Major metabolites observed in cellular extracts (% of total radioactivity) [2, 17]: 9.39 % of total radioactivity
- 2′-C-methyl guanosine nucleotide levels in cellular extracts ([2]; rat hepatocytes Rs458, 10 μM [^14C]-Compound 1, 0 h): 0 pmol/million cells
- 2′-C-methyl guanosine nucleotide levels in cellular extracts ([2]; rat hepatocytes Rs458, 10 μM [^14C]-Compound 1, 1 h): 28.0 pmol/million cells
- 2′-C-methyl guanosine nucleotide levels in cellular extracts ([2]; rat hepatocytes Rs458, 10 μM [^14C]-Compound 1, 4 h): 88.0 pmol/million cells
- 2′-C-methyl guanosine nucleotide levels in cellular extracts ([2]; rat hepatocytes Rs458, 10 μM [^14C]-Compound 1, 8 h): 86.0 pmol/million cells
- 2′-C-methyl guanosine nucleotide levels in cellular extracts ([2]; rat hepatocytes Rs458, 10 μM [^14C]-Compound 1, 24 h): 181 pmol/million cells
